Measurements: patent EP4509511A1, “SUBSTITUTED SPIRO-ISOXAZOLINYL LACTAMS, SALTS THEREOF AND THEIR USE AS HERBICIDALLY ACTIVE SUBSTANCES” (Bayer Aktiengesellschaft, priority 2023, dated 2025)

How the values were obtained:
ABUTH = experiment: Herbicidal post-emergence action - Part II; type: in vivo, Abutilon theophrasti
Text: (§1) Seeds of mono- and dicotyledonous weed plants and crop plants were sown, in plastic or organic planting pots, in sandy loam, covered with soil and grown in a greenhouse under controlled growth conditions. 2 to 3 weeks after sowing, the test plants were sprayed in the single-leaf stage. The compounds according to the invention, formulated in form of wettable powders (WP) or as emulsifiable concentrates (EC), were sprayed onto the green plant parts as aqueous suspension or emulsion, with the addition of 0.5% of an additive, at an application rate of 600 1 of water/ha (converted). The test plants were placed in the greenhouse for ca. 3 weeks under optimum growth conditions, and then the effect of the preparations was assessed visually in comparison with untreated controls (herbicidal effect in percent (%): 100% effect = plants have died off, 0% effect = as control plants). Tables E1 to E10 below show the effects of selected compounds of the general formula (I) according to table 1 on various harmful plants and an application rate corresponding to 320 g/ha or below obtained by the experimental procedure mentioned above. Table E1a: post-emergence activity at 5g/ha against ABUTH in %

TRZAS = experiment: Post-emergence effects on crop plants; type: in vivo, Triticum aestivum; conditions: crop plant
Text: as §1, with “F1” for “E1”, “F5” for “E10”, “crop” for “harmful”, “[…]:” for “E1a:”, “ZEAMX” for “ABUTH”

ECHCG = experiment: Herbicidal post-emergence action - Part II; type: in vivo, Echinochloa crus-galli; conditions: 20 g/ha; Table E3a
Text: as §1

SETVI = experiment: Herbicidal post-emergence action - Part II; type: in vivo, Setaria viridis; conditions: 20 g/ha; Table E7b
Text: as §1

VIOTR = experiment: Herbicidal post-emergence action - Part II; type: in vivo, Viola tricolor
Text: as §1

PHBPU = experiment: Herbicidal post-emergence action - Part II; type: in vivo, Pharbitis purpurea
Text: as §1

ZEAMX = experiment: Post-emergence effects on crop plants; type: in vivo, Zea mays; conditions: crop plant
Text: as §1, with “F1” for “E1”, “F5” for “E10”, “crop” for “harmful”, “[…]:” for “E1a:”, “ZEAMX” for “ABUTH”

AMARE = experiment: Herbicidal post-emergence action - Part II; type: in vivo, Amaranthus retroflexus
Text: as §1

VERPE = experiment: Herbicidal post-emergence action - Part II; type: in vivo, Veronica persica
Text: as §1

POLCO = experiment: Herbicidal post-emergence action - Part II; type: in vivo, Polygonum convolvulus; conditions: 20 g/ha; Table E6
Text: as §1

MATIN = experiment: Herbicidal post-emergence action - Part II; type: in vivo, Matricaria inodora
Text: as §1

## Cn1c(C(F)(F)F)cc(=O)n(-c2cc(C3=NOC4(CCCN(Cc5c(F)cccc5F)C4=O)C3)c(Cl)cc2F)c1=O (racemic) [Compound I-6]
ABUTH; 5 g/ha, Table E1a
  post-emergence activity against ABUTH: 100%
ABUTH; 20 g/ha, Table E1b
  post-emergence activity against ABUTH: 100%
TRZAS; 5 g/ha, Table F2a
  post-emergence activity against TRZAS: 20%
ECHCG
  post-emergence activity against ECHCG: 80%
SETVI
  post-emergence activity against SETVI: 100%
VIOTR; 5 g/ha, Table E9a
  post-emergence activity against VIOTR: 100%
VIOTR; 20 g/ha, Table E9b
  post-emergence activity against VIOTR: 100%
PHBPU; 5 g/ha, Table E5a
  post-emergence activity against PHBPU: 100%
PHBPU; 20 g/ha, Table E5b
  post-emergence activity against PHBPU: 100%
ZEAMX; 5 g/ha, Table F1a
  post-emergence activity against ZEAMX: 10%
ZEAMX; 20 g/ha, Table F1b
  post-emergence activity against ZEAMX: 10%
AMARE; 5 g/ha, Table E2a
  post-emergence activity against AMARE: 100%
AMARE; 20 g/ha, Table E2b
  post-emergence activity against AMARE: 100%
VERPE; 5 g/ha, Table E8a
  post-emergence activity against VERPE: 80%
VERPE; 20 g/ha, Table E8b
  post-emergence activity against VERPE: 80%

## CN1CCCC2(CC(c3cc(-n4c(=O)cc(C(F)(F)F)n(C)c4=O)c(F)cc3Cl)=NO2)C1=O (racemic) [Compound I-56]
ABUTH; 5 g/ha, Table E1a
  post-emergence activity against ABUTH: 100%
ABUTH; 20 g/ha, Table E1b
  post-emergence activity against ABUTH: 100%
TRZAS; 5 g/ha, Table F2a
  post-emergence activity against TRZAS: 20%
TRZAS; 20 g/ha, Table F2b
  post-emergence activity against TRZAS: 20%
SETVI
  post-emergence activity against SETVI: 90%
VIOTR; 5 g/ha, Table E9a
  post-emergence activity against VIOTR: 100%
VIOTR; 20 g/ha, Table E9b
  post-emergence activity against VIOTR: 100%
PHBPU; 5 g/ha, Table E5a
  post-emergence activity against PHBPU: 90%
PHBPU; 20 g/ha, Table E5b
  post-emergence activity against PHBPU: 100%
POLCO
  post-emergence activity against POLCO: 100%
AMARE; 5 g/ha, Table E2a
  post-emergence activity against AMARE: 100%
AMARE; 20 g/ha, Table E2b
  post-emergence activity against AMARE: 100%
VERPE; 5 g/ha, Table E8a
  post-emergence activity against VERPE: 80%
VERPE; 20 g/ha, Table E8b
  post-emergence activity against VERPE: 100%
MATIN; 20 g/ha, Table E4b
  post-emergence activity against MATIN: 100%

## Cn1c(C(F)(F)F)cc(=O)n(-c2cc(C3=NOC4(CCNC4=O)C3)c(Cl)cc2F)c1=O (racemic) [Compound I-71]
ABUTH; 5 g/ha, Table E1a
  post-emergence activity against ABUTH: 80%
ABUTH; 20 g/ha, Table E1b
  post-emergence activity against ABUTH: 100%
TRZAS; 5 g/ha, Table F2a
  post-emergence activity against TRZAS: 0%
VIOTR; 5 g/ha, Table E9a
  post-emergence activity against VIOTR: 80%
VIOTR; 20 g/ha, Table E9b
  post-emergence activity against VIOTR: 80%
PHBPU; 20 g/ha, Table E5b
  post-emergence activity against PHBPU: 80%
POLCO
  post-emergence activity against POLCO: 80%
ZEAMX; 5 g/ha, Table F1a
  post-emergence activity against ZEAMX: 20%
AMARE; 20 g/ha, Table E2b
  post-emergence activity against AMARE: 100%
VERPE; 20 g/ha, Table E8b
  post-emergence activity against VERPE: 80%
MATIN; 20 g/ha, Table E4b
  post-emergence activity against MATIN: 80%

## Cn1c(C(F)(F)F)cc(=O)n(-c2cc(C3=NOC4(CCCN(Cc5ccccc5F)C4=O)C3)c(Cl)cc2F)c1=O (racemic) [Compound I-7]
ABUTH; 5 g/ha, Table E1a
  post-emergence activity against ABUTH: 100%
ABUTH; 20 g/ha, Table E1b
  post-emergence activity against ABUTH: 100%
TRZAS; 5 g/ha, Table F2a
  post-emergence activity against TRZAS: 10%
TRZAS; 20 g/ha, Table F2b
  post-emergence activity against TRZAS: 20%
SETVI
  post-emergence activity against SETVI: 100%
VIOTR; 5 g/ha, Table E9a
  post-emergence activity against VIOTR: 100%
VIOTR; 20 g/ha, Table E9b
  post-emergence activity against VIOTR: 100%
PHBPU; 5 g/ha, Table E5a
  post-emergence activity against PHBPU: 100%
PHBPU; 20 g/ha, Table E5b
  post-emergence activity against PHBPU: 100%
POLCO
  post-emergence activity against POLCO: 100%
ZEAMX; 5 g/ha, Table F1a
  post-emergence activity against ZEAMX: 20%
AMARE; 5 g/ha, Table E2a
  post-emergence activity against AMARE: 100%
AMARE; 20 g/ha, Table E2b
  post-emergence activity against AMARE: 100%
VERPE; 5 g/ha, Table E8a
  post-emergence activity against VERPE: 100%
VERPE; 20 g/ha, Table E8b
  post-emergence activity against VERPE: 100%
MATIN; 5 g/ha, Table E4a
  post-emergence activity against MATIN: 80%
MATIN; 20 g/ha, Table E4b
  post-emergence activity against MATIN: 80%
